Results on six compounds are retold here after ChEMBL document CHEMBL1128401, “Structure-activity relationships in the 8-amino-6,7,8,9-tetrahydro-3H-benz[e]indole ring system. 1. Effects of substituents in the aromatic system on serotonin and dopamine receptor subtypes” (J Med Chem, 1995).

In experiment [1] the test system is Rattus norvegicus. Kind of experiment: The compound was tested in vivo for DOPA accumulation in hemispheres (cortex) against reserpine-pretreated rats;I= inactive at the highest dose tested. In kind it is functional, organism-based.
Experiment [2] addresses 5-hydroxytryptamine receptor 1B (Homo sapiens, UniProt P28222). Kind of experiment: Binding affinity against 5-hydroxytryptamine 1D receptor beta expressed in CHO-K1 cells, using [3H]5-HT as the radioligand. Type of experiment: cell-based.
Experiment [3] deals with Rattus norvegicus. Kind of experiment: The compound was tested in vivo for DOPA accumulation in limbic system against reserpine-pretreated rats;I= inactive at the highest dose tested. Type of experiment: functional, organism-based.
The target of experiment [4] is 5-hydroxytryptamine receptor 1D (Homo sapiens, UniProt P28221). Kind of experiment: Binding affinity against 5-hydroxytryptamine 1D receptor alpha expressed in CHO-K1 cells, using [3H]-5-HT as the radioligand. In kind it is cell-based.
In experiment [5] the test system is Rattus norvegicus. In words: compound was tested in vivo for DOPA accumulation in corpus striatum against reserpine-pretreated rats;I= inactive at the highest dose tested. In kind it is functional, organism-based.
The target of experiment [6] is T1, D(3) dopamine receptor (Rattus norvegicus, UniProt P19020). In words: Binding affinity against Dopamine receptor D3 from CHO-K1 cells, using [3H]spiperone as the radioligand. Type of experiment: cell-based. The settings on record: read-out: Ki.
Experiment [7] has as its target T2, D(2) dopamine receptor (Rattus norvegicus, UniProt P61169). In words: Binding affinity against Dopamine receptor D2 from CHO-K1 cells, using [3H]U-86,170 as the radioligand. In kind it is cell-based.
Experiment [8] concerns Rattus norvegicus. In words: Compound was tested in vivo for DOPA accumulation in corpus striatum against reserpine-pretreated rats;I= inactive at the highest dose tested (3.1). Type of experiment: functional, organism-based.
Experiment [9] deals with T2, D(2) dopamine receptor. In words: Binding affinity against Dopamine receptor D2 expressed in CHO-K1 cells, using [3H]U-86170 as the radioligand. In kind it is cell-based.
Experiment [10] deals with Rattus norvegicus. Kind of experiment: The Compound was tested in vivo for DOPA accumulation in limbic system against reserpine-pretreated rats; P=significant partial reduction only at the highest dose tested (3.1). In kind it is functional, organism-based.
In experiment [11] the test system is Rattus norvegicus. In words: The Compound was tested in vivo for DOPA accumulation in hemispheres (cortex) against reserpine-pretreated rats; I=inactive at the highest dose tested (3.1). In kind it is functional, organism-based.
The target of experiment [12] is T3, 5-hydroxytryptamine receptor 1A (Rattus norvegicus, UniProt P19327).
T3 sequence (P19327 whole entry): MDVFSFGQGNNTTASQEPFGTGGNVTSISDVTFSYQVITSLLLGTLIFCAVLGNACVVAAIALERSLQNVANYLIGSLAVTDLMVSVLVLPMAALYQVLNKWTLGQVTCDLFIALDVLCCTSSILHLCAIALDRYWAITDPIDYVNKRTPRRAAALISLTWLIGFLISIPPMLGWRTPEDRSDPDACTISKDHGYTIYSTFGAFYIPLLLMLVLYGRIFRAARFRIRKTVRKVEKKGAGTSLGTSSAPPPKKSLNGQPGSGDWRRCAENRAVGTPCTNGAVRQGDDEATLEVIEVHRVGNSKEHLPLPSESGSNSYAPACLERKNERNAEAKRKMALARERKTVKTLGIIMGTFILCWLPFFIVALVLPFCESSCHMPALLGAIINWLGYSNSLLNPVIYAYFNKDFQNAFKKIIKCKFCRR
Kind of experiment: Binding affinity against 5-hydroxytryptamine 1A receptor from CHO-K1 cells, using [3H]8-OH-DPAT as the radioligand. In kind it is cell-based.

Experiment [13] has as its target T1, D(3) dopamine receptor. Kind of experiment: Binding affinity against Dopamine receptor D3 expressed in CHO-K1 cells, using [3H]spiperone as the radioligand. In kind it is cell-based.
Experiment [14] concerns Rattus norvegicus. Kind of experiment: compound was tested in vivo for 5-HTP accumulation in corpus striatum against reserpine-pretreated rats, activity expressed as ED50; P=significant partial reduction only at the highest dose tested (20). In kind it is functional, organism-based.
The target of experiment [15] is T1, D(3) dopamine receptor. Kind of experiment: The compound was tested in vitro for binding affinity against cloned mammalian Dopamine receptor D3 expressed in CHO cells by, using [3H]spiperone as radioligand. Type of experiment: cell-based.
The test system of experiment [16] is Rattus norvegicus. Kind of experiment: The compound was tested in vivo for DOPA accumulation in limbic system against reserpine-pretreated rats; P=significant partial reduction only at the highest dose tested (20). In kind it is functional, organism-based.
Experiment [17] concerns Rattus norvegicus. In words: compound was tested in vivo for 5-HTP accumulation in limbic system against reserpine-pretreated rats; P=significant partial reduction only at the highest dose tested (20). Type of experiment: functional, organism-based.
In experiment [18] the test system is Rattus norvegicus. Kind of experiment: compound was tested in vivo for 5-HTP accumulation in hemispheres (cortex) against reserpine-pretreated rats; P=significant partial reduction only at the highest dose tested (20). Type of experiment: functional, organism-based.
For experiment [19], the system named is Rattus norvegicus. In words: compound was tested in vivo for DOPA accumulation in corpus striatum against reserpine-pretreated rats; P=significant partial reduction only at the highest dose tested (20). In kind it is functional, organism-based.
In experiment [20] the test system is Rattus norvegicus. Kind of experiment: The compound was tested in vivo for DOPA accumulation in hemispheres (cortex) against reserpine-pretreated rats; I= inactive at the highest dose tested (20). Type of experiment: functional, organism-based.
In experiment [21] the test system is Rattus norvegicus. Kind of experiment: The compound was tested in vivo for DOPA accumulation in limbic system against reserpine-pretreated rats; I=inactive at the highest dose tested. Type of experiment: functional, organism-based.
The test system of experiment [22] is Rattus norvegicus. In words: compound was tested in vivo for 5-HTP accumulation in corpus striatum against reserpine-pretreated rats, activity expressed as ED50;I= inactive at the highest dose tested. In kind it is functional, organism-based.
The target of experiment [23] is T2, D(2) dopamine receptor. The settings on record: cho-k1.
Experiment [24] deals with Rattus norvegicus. Kind of experiment: The Compound was tested in vivo for DOPA accumulation in limbic system against reserpine-pretreated rats; inactive at the highest dose tested (12.5). In kind it is functional, organism-based.
For experiment [25], the species on record is Rattus norvegicus. In words: Compound was tested for binding affinity against D3 receptor expressed in CHO-K1 cells, using [3H]spiperone as the radioligand;I= inactive (less than 50% inhibition at 1 uM).
Experiment [26] has as its system Rattus norvegicus. In words: Compound was tested in vivo for DOPA accumulation in corpus striatum against reserpine-pretreated rats; I=inactive at the highest dose tested (12.5). In kind it is functional, organism-based.
Experiment [27] has as its system Rattus norvegicus. In words: The Compound was tested in vivo for DOPA accumulation in limbic system against reserpine-pretreated rats;I= inactive at the highest dose tested (12.5). Type of experiment: functional, organism-based.
In experiment [28] the test system is Rattus norvegicus. In words: Compound was tested in vivo for 5-HTP accumulation in limbic system against reserpine-pretreated rats;I= inactive at the highest dose tested (12.5). Type of experiment: functional, organism-based.
The target of experiment [29] is T1, D(3) dopamine receptor. Kind of experiment: Compound was tested for binding affinity against Dopamine receptor D3 expressed in CHO-K1 cells, using [3H]spiperone as the radioligand; I= inactive at the highest dose tested (12.5). In kind it is cell-based.
The species named for experiment [30] is Rattus norvegicus. In words: Compound was tested for binding affinity against D2 receptor expressed in CHO-K1 cells, using [3H]U-86170 as the radioligand; I=inactive (less than 50% inhibition at 1 uM).
For experiment [31], the system named is Rattus norvegicus. In words: compound was tested in vivo for 5-HTP accumulation in limbic system against reserpine-pretreated rats,. Type of experiment: functional.
In experiment [32] the test system is Rattus norvegicus. In words: compound was tested in vivo for DOPA accumulation in corpus striatum against reserpine-pretreated rats; I= inactive at the highest dose tested (50). In kind it is functional, organism-based.
Experiment [33] has as its system Rattus norvegicus. Kind of experiment: compound was tested in vivo for 5-HTP accumulation in hemispheres (cortex) against reserpine-pretreated rats. Type of experiment: functional.
Experiment [34] deals with Rattus norvegicus. In words: compound was tested in vivo for 5-HTP accumulation in corpus striatum against reserpine-pretreated rats, activity expressed as ED50. Type of experiment: functional.
Experiment [35] concerns Rattus norvegicus. Kind of experiment: The compound was tested in vivo for DOPA accumulation in hemispheres (cortex) against reserpine-pretreated rats; I= inactive at the highest dose tested (50). In kind it is functional, organism-based.
The test system of experiment [36] is Rattus norvegicus. In words: The compound was tested in vivo for DOPA accumulation in limbic system against reserpine-pretreated rats; I= inactive at the highest dose tested (50). In kind it is functional, organism-based.

Active and inactive are the calls of the source. The calls are words filed in the database; no cut-off is given here.

Chain of 5-hydroxytryptamine receptor 1D (P28221 whole entry): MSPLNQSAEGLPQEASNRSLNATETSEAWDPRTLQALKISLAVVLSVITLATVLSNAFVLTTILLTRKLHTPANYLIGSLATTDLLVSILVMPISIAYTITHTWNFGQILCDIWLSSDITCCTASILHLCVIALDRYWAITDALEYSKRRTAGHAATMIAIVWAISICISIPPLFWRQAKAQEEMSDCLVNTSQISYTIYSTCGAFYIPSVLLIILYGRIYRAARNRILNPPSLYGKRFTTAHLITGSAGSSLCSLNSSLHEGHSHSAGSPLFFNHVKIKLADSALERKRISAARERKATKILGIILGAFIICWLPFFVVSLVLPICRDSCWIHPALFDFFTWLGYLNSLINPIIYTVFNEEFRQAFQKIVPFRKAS
T2 sequence (P61169 whole entry): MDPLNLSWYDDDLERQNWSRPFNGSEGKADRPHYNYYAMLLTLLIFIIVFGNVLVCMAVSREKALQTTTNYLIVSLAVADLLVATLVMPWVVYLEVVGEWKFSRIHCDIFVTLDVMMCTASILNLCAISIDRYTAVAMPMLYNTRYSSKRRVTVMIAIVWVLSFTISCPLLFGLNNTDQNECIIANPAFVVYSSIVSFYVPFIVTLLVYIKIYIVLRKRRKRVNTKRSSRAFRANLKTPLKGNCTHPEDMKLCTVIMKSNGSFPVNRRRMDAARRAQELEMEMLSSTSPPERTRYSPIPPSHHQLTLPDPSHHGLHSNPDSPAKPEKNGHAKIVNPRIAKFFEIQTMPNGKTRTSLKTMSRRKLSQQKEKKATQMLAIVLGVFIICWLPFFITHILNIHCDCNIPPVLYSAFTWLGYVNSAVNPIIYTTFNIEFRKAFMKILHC
Chain of 5-hydroxytryptamine receptor 1B (P28222 whole entry): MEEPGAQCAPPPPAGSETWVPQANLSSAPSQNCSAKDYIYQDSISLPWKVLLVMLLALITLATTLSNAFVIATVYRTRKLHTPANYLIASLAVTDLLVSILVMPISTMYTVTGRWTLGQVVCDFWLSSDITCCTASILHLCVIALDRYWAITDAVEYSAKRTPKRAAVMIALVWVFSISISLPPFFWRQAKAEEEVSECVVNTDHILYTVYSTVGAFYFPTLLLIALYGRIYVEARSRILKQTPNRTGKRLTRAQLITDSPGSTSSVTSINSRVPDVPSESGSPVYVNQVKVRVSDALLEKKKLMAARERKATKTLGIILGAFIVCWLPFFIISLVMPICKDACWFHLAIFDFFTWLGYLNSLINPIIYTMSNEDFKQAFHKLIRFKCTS
T1 sequence (P19020 whole entry): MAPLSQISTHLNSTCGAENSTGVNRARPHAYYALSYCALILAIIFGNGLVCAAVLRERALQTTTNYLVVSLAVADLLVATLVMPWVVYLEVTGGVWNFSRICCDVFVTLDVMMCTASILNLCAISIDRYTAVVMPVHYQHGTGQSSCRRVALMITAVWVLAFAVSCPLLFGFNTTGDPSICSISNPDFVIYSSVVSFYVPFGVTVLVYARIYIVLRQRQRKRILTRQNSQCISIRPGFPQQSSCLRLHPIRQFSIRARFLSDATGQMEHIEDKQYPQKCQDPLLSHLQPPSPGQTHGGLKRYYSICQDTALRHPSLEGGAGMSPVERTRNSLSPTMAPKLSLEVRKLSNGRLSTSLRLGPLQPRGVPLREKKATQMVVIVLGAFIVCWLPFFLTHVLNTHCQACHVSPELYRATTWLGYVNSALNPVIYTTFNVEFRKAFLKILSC

For orientation: ED50 means the midpoint of the dose-response relation. By Ki is commonly meant a dissociation constant, usually derived from enzyme kinetics or from competition with a known ligand. In the case of `CCCN(CCC)[C@@H]1CCc2ccc3[nH]cc(C=O)c3c2C1`, the ED50 entry in the experiment with Rattus norvegicus [1], with Rattus norvegicus [3] and in the experiment on Rattus norvegicus [5] was “inactive” throughout. For the same compound, the Ki was 210 nM in experiment [2] (read-out: Ki), 31 nM in [4] (read-out: Ki), 51 nM at D(3) dopamine receptor [6] and 17 nM on D(2) dopamine receptor [7].
As to `CCCN(CCC)[C@@H]1CCc2ccc3[nH]cc(C#N)c3c2C1`, the ED50 entry in the experiment with Rattus norvegicus [8] and in the experiment with Rattus norvegicus [11] was “inactive” each time. The Ki stood at 26 nM in experiment [2] (read-out: Ki); 22 nM at D(2) dopamine receptor [9]; 6.7 nM in experiment [4] (read-out: Ki); 0.8 nM in experiment [12]; 45 nM on D(3) dopamine receptor [13]. Also, the ED50 result in the experiment on Rattus norvegicus [10] is “Weak activity”.
Regarding `CCCN(CCC)C1CCc2cc(F)c3c(c(C=O)cn3C)c2C1` (stereo unspecified), the ED50 entry in the experiment on Rattus norvegicus [14], in the experiment on Rattus norvegicus [16], with Rattus norvegicus [17], in the experiment on Rattus norvegicus [18] and in the experiment on Rattus norvegicus [19] was “Weak activity” in each case. In addition, the Ki in experiment [2] (read-out: Ki) is 618 nM; at D(2) dopamine receptor [9] it was 1030 nM; in experiment [4] (read-out: Ki) it was 419 nM; on D(3) dopamine receptor [15], 572 nM; in [12] it was 28 nM. The ED50 entry in the experiment with Rattus norvegicus [20] was “inactive”.
Turning to `CCCN(CCC)C1CCc2ccc3c(c(C=O)cn3C)c2C1` (stereo unspecified), the ED50 entry in the experiment on Rattus norvegicus [21], with Rattus norvegicus [1] and in the experiment with Rattus norvegicus [22] was “inactive” in each case. The Ki was found to be 439 nM in experiment [2] (read-out: Ki); 334 nM in [4] (read-out: Ki); 1010 nM on D(3) dopamine receptor [6]; 510 nM at D(2) dopamine receptor [7]; 40 nM in [12].
Consider `CCCN(CCC)C1CCc2ccc3[nH]cc(CN(C)C)c3c2C1` (stereo unspecified), for which the Ki entry was “Not Active” at D(2) dopamine receptor [23]; “Not Active” in [2] (cho-k1); “Not Active” in [4] (cho-k1); “Not Active” at D(3) dopamine receptor [29]; 113 nM in [12]. Also, the ED50 result in the experiment on Rattus norvegicus [24], in the experiment with Rattus norvegicus [26], in the experiment with Rattus norvegicus [27] and in the experiment with Rattus norvegicus [28] was “inactive” each time. Further, the Ki result in the experiment filed under Rattus norvegicus [25] and in the experiment filed under Rattus norvegicus [30] was “inactive” in each case.
For the compound `CCCNC1CCc2cc(F)ccc2C1` (stereo unspecified), the results for the ED50 with Rattus norvegicus [31], in the experiment with Rattus norvegicus [33] and in the experiment with Rattus norvegicus [34] were 15.5 µmol/kg, 12.8 µmol/kg and 9.53 µmol/kg, respectively. Also, the Ki in experiment [2] (read-out: Ki) came to 1510 nM; at D(2) dopamine receptor [9] it was 162 nM; in [4] (read-out: Ki), 585 nM; on D(3) dopamine receptor [15], 156 nM; in experiment [12], 134 nM. Moreover, the ED50 result with Rattus norvegicus [32], with Rattus norvegicus [35] and with Rattus norvegicus [36] was “inactive” each time.
